Columns and labels:
A431 cells [1] = assay: ATP release assay; assay type: cell-based, human; conditions: both concentrations (500 and 300 μM), within 60 minutes
Procedure: (§1) A431 (human epidermoid carcinoma), MM649 (human melanoma) and B16-OVA (B16-F10 mouse melanoma cell line stably transfected with chicken ovalbumin) were cultured in RPMI-1640, 10% FCS (complete medium) at 37° C., 5% CO2 in a humidified incubator. BMDCs were cultured in R10 media (RPMI, 10% FCS, 2 mM glutamine, 50 μM beta-mercaptoethanol, Pen/Strep). All cell lines used in this study were confirmed as mycoplasma negative using MycoAlert (Lonza). STR profiling was also performed to confirm the identity of the human cell lines used.
(§2) Cell lines were plated at a density of 10,000 cells per well into clear 96-well plates (Corning, #3595; 100 μl of complete media) and the resultant plates incubated overnight as previously detailed. The following day, media was aspirated from each well and 50 μl of fresh medium was inserted. Stock solutions of Compounds 1, 2, 3 and 4 were diluted to 2× final assay concentration (1 mM and 600 μM) and 50 μl of these dilutions added to the required wells. Ethanol only control solutions were also compiled and administered. At the indicated timepoints, 80 μl of media was removed, centrifuged at 1,200 rpm for 4 mins to pellet cell debris and 50 μl assayed for ATP using a bioluminescence based ATP assay kit (FLAA, Sigma-Aldrich). Relative luminescence units were recorded for each sample using a Hybrid Synergy H4 plate reader (BioTek).

MM649 cells [2] = assay: ATP release assay; assay type: cell-based, human; conditions: both concentrations (500 and 300 μM), within 60 minutes
Procedure: as §1, §2

A431 cells [3] = assay: Intracellular ATP assay (CellTiter-Glo 2.0); assay type: cell-based, human
Procedure: (§3) CellTiter-Glo® 2.0 assay kits (Promega Corporation), a luminescence based assay quantitating the amount of ATP present in cells, were used to determine intracellular ATP levels in cultures of A431 and MM649 exposed to two concentrations (300 μM and 500 μM) of Compound 1. Again, cells were plated at a density of 10,000 cells per well into a clear bottomed black 96-well plates (in 100 μl of complete medium) and incubated at 37° C., 5% CO2 overnight. At the time of assay, media was aspirated from each well and 50 μl of fresh medium was inserted. Stock solutions of Compound 1 were diluted to 2× final assay concentrations (1 mM and 600 μM) and 50 μl of these dilutions added to the required wells. Ethanol only control solutions were also compiled and administered. At the indicated time points, media was gently removed making sure not to disturb the cells and 100 μl of CellTiter-Glo® 2.0 Reagent added. The resultant plate was mixed on an orbital shaker for 2 mins to induce cell lysis after which it was incubated in the dark for 10 mins. Following this, the luminescent signal in each well was determined. Luminescent signals from compound treated wells were normalised to Vehicle treated wells and expressed as % intracellular ATP vs. time.

MM649 cells [4] = assay: Intracellular ATP assay (CellTiter-Glo 2.0); assay type: cell-based, human
Procedure: as §3

B16-OVA cells = assay: ATP release assay; assay type: cell-based, mouse; conditions: both concentrations (500 and 300 μM), within 60 minutes
Procedure: as §1, §2

A431 cells [5] = assay: HMGB1 release assay (ELISA); assay type: cell-based, human; conditions: within 120 minutes
Procedure: as §1
(§4) Cell lines (A431, MM649 and B16-OVA) were plated into T75 cm^2 flasks (Nunc) in 10 ml of complete media and cultured at 37° C., 5% CO2 until they reached 90% confluency. Compounds 1, 2, 3 and 4 were diluted in 5 ml of identical media to a final concentration of 500 and 300 μM and then administered to the cells. Several flasks were prepared such that a kinetic curve of HMGB1 release in response to drug treatment could be established. Ethanol only controls were also generated. At the required timepoint, media was removed from the flask into a 10 ml polypropylene tube that was placed on ice for 5 mins. […] OD450 nm values were determined using a Hybrid Synergy H4 plate reader (BioTek). Absorbance values from drug treated samples were normalized to vehicle treated samples to determine the fold increase in HMGB1 release in response to epoxytigliane treatment.

MM649 cells [6] = assay: HMGB1 release assay (ELISA); assay type: cell-based, human; conditions: within 120 minutes
Procedure: as §1, §4

A431 cells [7] = assay: Calreticulin externalization assay (flow cytometry); assay type: cell-based, human; conditions: within 60 minutes of treatment
Procedure: (§5) Calreticulin externalization was determined as previously detailed (Gomez-Cadena et al. 2016). Briefly, cells (A431, MM649, B16-OVA) cultured in complete medium at 37° C., 5% CO2 were detached via trypsinisation, centrifuged at 1,200 rpm and washed ×2 with fresh medium. After an additional round of centrifugation, the resultant cell pellet was resuspended at a concentration of 1×10^6 cells/ml, after which epoxytigliane was added to a final concentration of 500 or 300 μM. Ethanol only controls were also performed. Cell suspensions were incubated at 37° C., 5% CO2 and at the indicated timepoints, 200 μl of sample was removed and incubated with LIVE/DEAD fixable far red stain for 5 mins on ice. Following this, cells were pelleted at 1,200 rpm for 4 mins and washed ×1 with PBS. 500 μl of PBS, 0.25% formaldehyde was then added to each pellet to perform a light fixation without compromising plasma membrane integrity. […]
(§6) Samples were gated by FSC-H v FSC-A first to identify single cells, after which the LIVE/DEAD stain (Ex: 640 nm, Em: 670/14) negative (intact cell) population was analysed for green fluorescence (Ex: 488 nm, Em: 530/30; calreticulin externalization). Mean fluorescence intensity values were subsequently determined and graphed versus time.

MM649 cells [8] = assay: as above; assay type: cell-based, human; conditions: within 60 minutes of treatment
Procedure: as §5, §6

C/C=C(\C)C(=O)O[C@@H]1[C@@H](C)[C@@]2(O)[C@H]([C@@H]3C(C)(C)[C@]13OC(=O)[C@@H](C)CC)[C@@H]1O[C@]1(CO)[C@@H](O)[C@]1(O)C(=O)C(C)=C[C@H]12 [Compound 1, 12-tigloyl-13-(2-methylbutanoyl)-6,7-epoxy-4,5,9,12,13,20-hexahydroxy-1-tiglien-3-one]
ATP release (A431 cells [1]): significant release of ATP | ATP release (MM649 cells [2]): significant release of ATP | intracellular ATP (A431 cells [3]; 300 μM, after 120 minutes): approximately 50 % of the pre-treatment level | intracellular ATP levels (A431 cells [3]; 500 μM, after 60 minutes): almost undetectable | intracellular ATP (MM649 cells [4]; 300 μM, after 120 minutes): approximately 50 % of the pre-treatment level | intracellular ATP levels (MM649 cells [4]; 500 μM, after 60 minutes): almost undetectable | ATP release (B16-OVA cells): significant release of ATP | increase in HMBG1 release, normalised to vehicle treated cells (A431 cells [5]): up to 40% | increase in HMBG1 release, normalised to vehicle treated cells (MM649 cells [6]): up to 40% | calreticulin externalisation (mean fluorescence intensity) (A431 cells [7]): significant increases in mean fluorescence intensity | calreticulin externalisation (mean fluorescence intensity) (MM649 cells [8]): significant increases in mean fluorescence intensity
